Data as given in patent US3966728A, “Benzoguanamine derivatives” (Nippon Shinyaku Co., Ltd., priority 1974, dated 1976).

Experiments:
[1] = tested on: Ulcer (Shay rat); experiment: Anti-ulcerative activity (Shay rat); assay type: in vivo; details: ip, read-out: % Inhibition of Ulcer Index; for inhibition in vivo at 10 mg/kg: 10 mg/Kg i.p.; for inhibition in vivo at 20 mg/kg: 20 mg/Kg i.p.
Source text: (§1) Data of the anti-ulcerative activity (Shay rat) and the acute toxicity (mouse) obtained with respect to several typical instances of compounds included in the scope of this invention are shown in Table 1.

[2] = Acute toxicity (mouse); details: in vivo, ip
Source text: as §1

**Q.** For `Nc1nc(N)nc(-c2cc(Cl)ccc2Cl)n1` [Example 1], which inhibition in vivo at 10 mg/kg [1] is on record?
**A.** Its inhibition in vivo at 10 mg/kg is 49%.

**Q.** And the inhibition in vivo at 20 mg/kg [1]?
**A.** Its inhibition in vivo at 20 mg/kg is 100%.

**Q.** What about the LD50 [2] of the same molecule?
**A.** Its LD50 is about 1600 mg/kg.

**Q.** With `Nc1nc(N)nc(-c2cc(Br)ccc2Cl)n1` [Example 6] as the molecule, how does the inhibition in vivo at 10 mg/kg [1] read?
**A.** The inhibition in vivo at 10 mg/kg was 35%.

**Q.** What about the inhibition in vivo at 20 mg/kg [1] of the same molecule?
**A.** The inhibition in vivo at 20 mg/kg was 86%.

**Q.** What about the LD50 [2] of the same molecule?
**A.** The LD50 was over 1000 mg/kg.

**Q.** What does the source list for `Nc1nc(N)nc(-c2ccc(Cl)cc2Cl)n1` [Example 7]?
**A.** inhibition in vivo at 10 mg/kg [1]: 77%; inhibition in vivo at 20 mg/kg [1]: 100%; LD50 [2]: ~300 mg/kg

**Q.** For `Nc1nc(N)nc(-c2cccc(Cl)c2Cl)n1` [Example 10], which inhibition in vivo at 20 mg/kg [1] is on record?
**A.** Its inhibition in vivo at 20 mg/kg is 76%.

**Q.** Which results are given for `Nc1nc(N)nc(-c2cc(Cl)ccc2Br)n1` [Example 3]?
**A.** inhibition in vivo at 10 mg/kg [1]: 33%; inhibition in vivo at 20 mg/kg [1]: 80%; LD50 [2]: ~1000 mg/kg

**Q.** With `Nc1nc(N)nc(-c2cc(Cl)ccc2F)n1` [Example 2] as the molecule, how does the inhibition in vivo at 20 mg/kg [1] read?
**A.** Its inhibition in vivo at 20 mg/kg is 89%.

**Q.** What does the source list for `Nc1nc(N)nc(-c2cc(F)ccc2Br)n1` [Example 4]?
**A.** inhibition in vivo at 20 mg/kg [1]: 78%; LD50 [2]: ~500 mg/kg

**Q.** Which results are given for `Nc1nc(N)nc(-c2cc(Br)ccc2Br)n1` [Example 5]?
**A.** inhibition in vivo at 20 mg/kg [1]: 100%; LD50 [2]: ~850 mg/kg

**Q.** With `Nc1nc(N)nc(-c2c(Cl)cccc2Cl)n1` [Example 11] as the molecule, how does the inhibition in vivo at 20 mg/kg [1] read?
**A.** The inhibition in vivo at 20 mg/kg was 54%.

**Q.** With `Nc1nc(N)nc(-c2ccc(Cl)cc2Br)n1` [Example 8] as the molecule, how does the inhibition in vivo at 10 mg/kg [1] read?
**A.** The inhibition in vivo at 10 mg/kg was 76%.

**Q.** What about the inhibition in vivo at 20 mg/kg [1] of the same molecule?
**A.** Its inhibition in vivo at 20 mg/kg is 96%.

**Q.** Which inhibition in vivo at 20 mg/kg [1] does the source give for `Nc1nc(N)nc(-c2cc(Cl)cc(Cl)c2)n1` [Example 12] here?
**A.** The inhibition in vivo at 20 mg/kg was 80%.
